From patent publication US20230339970A1, “CASEIN KINASE 1 DELTA MODULATORS” (priority 2020, published 2023) come the findings set out here.

Test [1] deals with T1, human CSNK1D (Homo sapiens, UniProt P48730).
T1 construct: expressed in transfected cells
The experiment in a line: Whole Cell nBRET CSNK1D Binding Assay. The note with it: living CHO cells stably expressing human CSNK1D tagged with nanoluciferase; NanoBret tracer 130 nM; 2 hours at 37 C.

Test [2] has as its target T2, human recombinant GST cleaved CSNK1D (Homo sapiens, UniProt P48730).
T2 construct: GST (cleaved yes); purchased University of Dundee clone DU 19064
The experiment in a line: Purified Enzyme Assay (ADP-Glo CSNK1D Kinase Assay). The note with it: 2 nM CSNK1D; peptide substrate 150 μM; ATP 20 μM; 45 minutes at room temperature. The test is classed as biochemical. In outline: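 Percent activity derived from ADP-Glo quantification of ADP produced. Reactions: compound dose-response with human recombinant GST-cleaved CSNK1D, ATP and substrate peptide PLSRTL-pS-VASLPGL, incubated 45 min at room temperature.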
A general note: ADP-Glo turns the ADP formed in a reaction into a luminescent signal.

T1 sequence (P48730 whole entry): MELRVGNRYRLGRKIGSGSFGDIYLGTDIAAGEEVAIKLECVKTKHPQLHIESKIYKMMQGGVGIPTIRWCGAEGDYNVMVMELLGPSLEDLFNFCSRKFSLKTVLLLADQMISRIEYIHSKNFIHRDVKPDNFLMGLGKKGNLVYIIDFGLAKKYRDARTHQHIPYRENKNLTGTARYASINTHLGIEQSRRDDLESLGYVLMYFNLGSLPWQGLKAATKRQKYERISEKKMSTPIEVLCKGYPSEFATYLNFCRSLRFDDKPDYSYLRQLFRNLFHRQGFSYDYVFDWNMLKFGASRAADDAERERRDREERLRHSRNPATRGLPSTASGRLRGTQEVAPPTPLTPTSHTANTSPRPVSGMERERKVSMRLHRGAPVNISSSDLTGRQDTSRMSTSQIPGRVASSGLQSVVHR
T2 sequence (P48730 whole entry): as above

As for `COCC1(F)CCc2c(-c3cc(C(F)F)nc4[nH]ncc34)c(-c3ccc(F)cn3)nn2C1` (single isomer, unassigned) [Example 307, (*R)-6-(Difluoromethyl)-4-[6-fluoro-2-(5-fluoro-2-pyridyl)-6-(methoxymethyl)-5,7-dihydro-4H-pyrazolo[1,5-a]pyridin-3-yl]-1H-pyrazolo[3,4-b]pyridine], the IC50 (commonly the concentration needed to halve the response being measured) was greater than 10000 nM in test [1] and 183 nM in test [2].
Regarding `Cn1cnc(-c2nn3c(c2-c2ccnc4[nH]ncc24)COC(C)(C)C3)c1` [Example 127, 6,6-Dimethyl-2-(1-methyl-1H-imidazol-4-yl)-3-(1H-pyrazolo[3,4-b]pyridin-4-yl)-6,7-dihydro-4H-pyrazolo[5,1-c][1,4]oxazine], the IC50 in test [1] amounted to 3250 nM; in test [2], 51 nM.
For `C[C@H]1OCc2c(-c3ccnc4[nH]ncc34)c(-c3ccc(F)cc3)nn2[C@H]1C` (relative stereo) [Example 112, (6*R,7*S)-2-(4-Fluorophenyl)-6,7-dimethyl-3-(1H-pyrazolo[3,4-b]pyridin-4-yl)-6,7-dihydro-4H-pyrazolo[5,1-c][1,4]oxazine], in that order: 54 nM and 3 nM.
Consider `C[C@]1(C(F)(F)F)Cn2nc(-c3ccc(F)cc3)c(-c3ccn4nccc4c3)c2CO1` (single isomer, unassigned) [Example 412, (*R)-2-(4-Fluorophenyl)-6-methyl-3-(pyrazolo[1,5-a]pyridin-5-yl)-6-(trifluoromethyl)-6,7-dihydro-4H-pyrazolo[5,1-c][1,4]oxazine], for which the IC50 is 694 nM in test [1] and 149 nM in test [2].
For `Cn1cc2c(-c3c(-c4ccc(F)cn4)nn4c3COC(C)(C)C4)ccnc2n1` [Example 158, 2-(5-Fluoro-2-pyridyl)-6,6-dimethyl-3-(2-methylpyrazolo[3,4-b]pyridin-4-yl)-4,7-dihydropyrazolo[5,1-c][1,4]oxazine], in that order: greater than 10000 nM and 6870 nM.
The corresponding values for `Fc1ccc(-c2nn3c(c2-c2c(F)cnc4[nH]ncc24)CC2(C3)CC2(F)F)nc1` (single isomer, unassigned) [Example 258, (*S)-2,2-Difluoro-3′-(5-fluoro-1H-pyrazolo[3,4-b]pyridin-4-yl)-2′-(5-fluoropyridin-2-yl)-4′H,6′H-spiro[cyclopropane-1,5′-pyrrolo[1,2-b]pyrazole]] are 71 nM and 6 nM.
Turning to `CCn1ncc2cc(-c3c(-c4ccc(F)cn4)nn4c3OCC(C)(C)C4)cnc21` [Example 452, 3-(1-Ethyl-1H-pyrazolo[3,4-b]pyridin-5-yl)-2-(5-fluoropyridin-2-yl)-6,6-dimethyl-6,7-dihydro-5H-pyrazolo[5,1-b][1,3]oxazine], the IC50 in test [1] came out at 570 nM; in test [2] it was 44 nM.
`Cc1nc2[nH]nc(C)c2c(-c2c(-c3ccc(F)cn3)nn3c2CC[C@@]2(C3)CC2(F)F)c1F` (single isomer, unassigned) [Example 333, (*S)-2,2-Difluoro-3′-(5-fluoro-3,6-dimethyl-1H-pyrazolo[3,4-b]pyridin-4-yl)-2′-(5-fluoropyridin-2-yl)-4′,5′-dihydro-7′H-spiro[cyclopropane-1,6′-pyrazolo[1,5-a]pyridine]]: the concentration for half-maximal inhibition (IC50) in test [1] is greater than 10000 nM; in test [2] it was 4960 nM.
On to `[2H]C([2H])([2H])C1(C([2H])([2H])[2H])Cn2nc(-c3ccc(F)cn3)c(-c3c(F)cnc4[nH]nc(C)c34)c2CO1` [Example 404, 3-(5-Fluoro-3-methyl-1H-pyrazolo[3,4-b]pyridin-4-yl)-2-(5-fluoropyridin-2-yl)-6,6-bis(methyl-d3)-6,7-dihydro-4H-pyrazolo[5,1-c][1,4]oxazine], for which the IC50 is 137 nM in test [1] and 9 nM in test [2].
